Results as given in patent publication US20230055568A1, “THERAPEUTIC AGENT FOR MYALGIC ENCEPHALOMYELITIS/CHRONIC FATIGUE SYNDROME” (MITSUBISHI TANABE PHARMA CORPORATION, priority 2020, published 2023).
“Also recorded” adds a separate entry of the source.

System: water-immersion stress loaded rat (fatigue rat) model
Assay: weight-loaded forced swimming test in ME/CFS animal model (water-immersion stress loaded fatigue rat)
Format: in vivo
Conditions: Slc:SD fatigue rat, compared to fatigue control group, hydrochloride
From the text: A […] encephalomyelitis/chronic fatigue syndrome (ME/CFS)-improving effect by the administration of the compound (amiselimod hydrochloride) relating to the present invention was verified as follows according to the method of Tanaka et al. (Establishment and assessment of a rat model fatigue. Neuroscience letters 2003, 352: 159-162) using a water-immersion stress loaded rat (fatigue rat) model. The animal used was 9-week-old Slc:SD rat. The rats were bred (water-immersion breeding) for 6 days in a plastic cage (W: 445×D: 276×H: 204 mm) containing tap water (water temperature: 23±1° C.) to a height of 1.5 cm, and a weight-loaded forced swimming test was conducted. on the final day. In the weight-loaded forced swimming test, a rat with a weight equivalent to 8% of its body weight attached to its tail was placed in a circular water tank (diameter: 18 cm, height: 70 cm, water depth: 40 cm, water temperature: 23±1° C.), and the time from the start of swimming until the rat's nose sinks from the water surface for 20 seconds was measured. The weight-loaded forced swimming test was conducted blindly. Amiselimod hydrochloride (0.1, 0.3 and 1 mg/kg administration) was orally administered once a day for 6 days from the start date of the water-immersion breeding. As control groups, a normal control group for normal breeding and a fatigue control group for water-immersion breeding were set, and the vehicle (0.5% HPMC) was administered to both groups. The number of cases was 10 in each group.

## CCCCCCCOc1ccc(CCC(N)(CO)CO)cc1C(F)(F)F.Cl [amiselimod hydrochloride, 2-amino-2-[2-(4-heptyloxy-3-trifluoromethylphenyl)ethyl]propane-1,3-diol hydrochloride]
0.1 mg/kg orally once a day for 6 days, 0.1 mg/kg
  swimming time in weight-loaded forced swimming test: significant difference was observed; also recorded: significantly prolonged the swimming time
0.3 mg/kg orally once a day for 6 days, 0.3 mg/kg
  swimming time in weight-loaded forced swimming test: significant difference was observed; also recorded: significantly prolonged the swimming time
1 mg/kg orally once a day for 6 days, 1 mg/kg
  swimming time in weight-loaded forced swimming test: significant difference was observed; also recorded: significantly prolonged the swimming time
